# Test results published in patent US20250059141A1, “TLR MODULATOR AND USE THEREOF” (DUALITY BIOLOGICS (SUZHOU) CO., LTD., priority 2021, published 2025).
# Read-outs that look alike come from different tables or passages of the source.
# What was measured:
# [1] = test system: TNF-α production in human PBMCs; assay: Induction of TNF-α in human PBMCs (ELISA); format: cell-based; conditions: PBMC, 24 h, read-out: PBMC assay TNFa EC50
# Protocol: In this example, the induction activity of the compounds of the present application on human PBMCs for TNF-α and IFN-α production was assessed in human PBMCs (human peripheral blood mononuclear cells). The human PBMCs were purchased from Shanghai Saily Biotechnology Co., Ltd. (Cat. No. XFB—HP100B). PBMC cells were treated with the compounds. The compounds of the present application are diluted in DMSO, for example, to about 15 mM. The reference compound was added to the plates in sequence after diluted to 5 mg/mL. The compounds were serially 3- or 4-fold diluted to 8 concentrations and added to plates in duplicate (Table 2-1 for serial 3-fold dilutions and Table 2-2 for serial 4-fold dilutions). For the negative control wells, DMSO was added at 0.4 μL/well, and a 5 mg/mL reference compound solution was added to the positive control wells at 0.4 μL/well. The final concentration of DMSO was 0.2%. Frozen human PBMCs in cryopreservation tubes were quickly thawed in a 37° C. water bath and transferred into 50-mL centrifuge tubes. Prewarmed RPMI1640 medium was gradually added and the mixture was well mixed and centrifuged for 15 min before the supernatant was discarded. The cells were resuspended in a culture medium and counted. The cell suspension was adjusted to 2.5×10^6 cells/mL with the culture medium. Diluted cells were added at 200 μL/500,000 cells/well in 96-well plates containing the compounds. The cell plates were incubated at 37° C./5% CO2 for 24 h.
# The plate was then washed thrice. […] Termination of reaction: The reaction was terminated by quickly adding the stop solution at 100 μL/well. Plate reading: The reading at wavelength 450 nm was detected by an M2e instrument within 10 min after the termination.
# Compound activity data analysis: The OD450 values were converted to TNF-α and IFN-α contents by GraphPad Prism software analysis and fitted to give dose-response curves of the compounds. The EC50 values for the compounds were calculated, where the Emax values are the maximal values for TNF-α and IFN-α.
# [2] = molecular target: T1, hTLR7 (human Toll-like receptor 7) (Homo sapiens, UniProt Q9NYK1); assay: HEK-Blue hTLR7 reporter assay (QUANTI-Blue, OD650); format: cell-based; conditions: HEK-Blue hTLR7 cells, 24 h, read-out: Reporter assay TLR7 EC50
# T1 construct: host or cells: HEK-Blue hTLR7 (HEK293-derived reporter cells)
# T1 sequence (Q9NYK1 27-1049): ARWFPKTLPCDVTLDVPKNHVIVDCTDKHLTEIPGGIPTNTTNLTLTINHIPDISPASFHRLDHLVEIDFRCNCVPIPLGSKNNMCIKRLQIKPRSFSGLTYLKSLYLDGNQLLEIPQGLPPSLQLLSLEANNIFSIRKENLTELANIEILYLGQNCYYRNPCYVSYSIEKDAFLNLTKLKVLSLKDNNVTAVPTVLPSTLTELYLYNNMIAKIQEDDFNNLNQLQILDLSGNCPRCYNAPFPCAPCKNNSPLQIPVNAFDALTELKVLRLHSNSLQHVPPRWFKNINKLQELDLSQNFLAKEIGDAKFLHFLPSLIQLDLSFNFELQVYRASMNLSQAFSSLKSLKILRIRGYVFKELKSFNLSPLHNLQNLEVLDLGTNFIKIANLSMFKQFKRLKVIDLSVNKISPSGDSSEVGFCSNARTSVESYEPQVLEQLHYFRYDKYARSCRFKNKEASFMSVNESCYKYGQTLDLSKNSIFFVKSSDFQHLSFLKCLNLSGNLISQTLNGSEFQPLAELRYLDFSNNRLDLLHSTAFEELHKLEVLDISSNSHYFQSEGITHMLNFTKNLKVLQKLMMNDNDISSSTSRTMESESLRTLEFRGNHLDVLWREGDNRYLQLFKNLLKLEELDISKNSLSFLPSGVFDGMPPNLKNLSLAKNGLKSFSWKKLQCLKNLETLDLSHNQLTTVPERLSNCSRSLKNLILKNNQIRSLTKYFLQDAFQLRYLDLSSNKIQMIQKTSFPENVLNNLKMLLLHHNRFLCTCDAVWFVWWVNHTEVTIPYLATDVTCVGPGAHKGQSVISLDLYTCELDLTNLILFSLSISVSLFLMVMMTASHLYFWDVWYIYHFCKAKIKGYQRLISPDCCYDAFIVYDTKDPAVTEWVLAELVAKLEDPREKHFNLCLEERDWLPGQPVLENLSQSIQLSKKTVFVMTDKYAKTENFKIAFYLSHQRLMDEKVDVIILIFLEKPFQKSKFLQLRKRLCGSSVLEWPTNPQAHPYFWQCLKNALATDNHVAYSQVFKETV
# Protocol: In this example, the agonistic activity of the compounds of the present application on hTLR7 (human Toll-like receptor 7) and hTLR8 (human Toll-like receptor 8) was assessed; the induction activity of the compounds on human PBMCs for TNF-α and IFN-α production was assessed in human PBMCs (human peripheral blood mononuclear cells).
# All compounds were formulated in DMSO into 30 mM stock solutions and preserved at 4° C. The reference compound ([…], Cat. No. tlrl-r848-5) was purchased from InvivoGen and formulated into a 5 mg/mL stock solution in DMSO and preserved in a freezer at −20° C. HEK-Blue hTLR7 and HEK-Blue hTLR8 cell lines were purchased from InvivoGen, and human PBMCs were purchased from Shanghai Saily Biotechnology Co., Ltd. (Cat. No. XFB—HP100B).
# The major instruments used in this study were multifunctional microplate reader Flexstation III (Molecular Device), Envision (Perkin Elmer), M2e (Molecular Device), and Echo555 (Labcyte). 2.1 Agonistic activity of compounds on hTLR7 (human Toll-like receptor 7) and hTLR8 (human Toll-like receptor 8)
# Compound dilution: The compounds of the present application are diluted in DMSO, for example, to about 15 mM. The reference compound was added to the plates in sequence after dilution. The compounds were serially 3-fold diluted to 10 concentrations and added to 96-well plates in duplicate.
# For the negative control wells, DMSO was added at 0.2 μL/well, and the reference compound was added to the positive control wells. The final concentration of DMSO was 0.2%.
# Cell plating: When an 80% confluence of HEK Blue hTLR7&8 cells in the culture flask was observed under a microscope, the culture medium was discarded, 10 mL of detection medium was added, and the cells were separated by pipetting. The cells were counted on a cytometer and diluted to 500,000 cells/mL. The cells were plated at 100 μL/50,000 cells/well in the 96-well plates containing the compounds. The compounds and cells were co-incubated at 37° C. in a 5% CO2 incubator for 24 hours.
# Compound activity detection: 20 μL of cell supernatant was taken from each well and added to a plate containing QUANTI-Blue™ reagent at 180 μL/well. The plate was incubated at 37° C. for 1 hour, and the absorbance at 650 nm (OD650) was measured on the multifunctional microplate reader Flexstation III.
# Compound activity data analysis: The OD650 values were analyzed by GraphPad Prism software and fitted to give dose-response curves of the compounds. The EC50 values of compounds were calculated.
# [3] = serial 4-fold dilutions, class symbols
Compound,"EC50 [1, 3] [nM]",EC50 ([2]; class symbols) [nM],EC50 ([1]; serial 3-fold dilutions) [nM],EC50 [2] [nM]
CCCN(OCc1ccc(N)cc1)C(=O)C1=Cc2ccc(-c3cccc(S(=O)(=O)N4CCC(O)CC4)c3)cc2N=C(N)C1 [Compound 66],≤ 10,100 to 1000,,
CCCN(OCc1ccc(N)cc1)C(=O)C1=Cc2ccc(-c3cncc(CO)c3)cc2N=C(N)C1 [Compound 15],,,3,712
CCCN(OCc1ccc(N)cc1)C(=O)C1=Cc2ccc(C(=O)Nc3ccn(C)n3)cc2N=C(N)C1 [Compound 88],≤ 10,> 1000,,
CCCN(OCc1ccc(N)cc1)C(=O)C1=Cc2ccc(C(=O)NC3COC3)cc2N=C(N)C1 [Compound 81],10 to 50,> 1000,,
CCCN(OCc1ccc(N)cc1)C(=O)C1=Cc2ccc(-c3cncc(S(N)(=O)=O)c3)cc2N=C(N)C1 [Compound 36],,,12.2,1080
CCCN(OCc1ccc(N)cc1)C(=O)C1=Cc2ccc(C(=O)N3CCOC(CO)C3)cc2N=C(N)C1 (stereo not drawn) [Compound 47],10 to 50,> 1000,,
CCCN(OCc1ccc(N)cc1)C(=O)C1=Cc2ccc(C(=O)Nc3ccc4cn[nH]c4c3)cc2N=C(N)C1 [Compound 89],10 to 50,> 1000,,
CCCN(OCc1ccc(N)cc1)C(=O)C1=Cc2ccc(-c3cccc(S(=O)(=O)NCCO)c3)cc2N=C(N)C1 [Compound 64],≤ 10,100 to 1000,,
CCCN(OCc1ccc(N)cc1)C(=O)C1=Cc2ccc(C(=O)NC3CCCCC3)cc2N=C(N)C1 [Compound 82],≤ 10,> 1000,,
CCCN(OCc1ccc(N)cc1)C(=O)C1=Cc2ccc(C(=O)NCCO)cc2N=C(N)C1 [Compound 48],10 to 50,> 1000,,
CCCN(OCc1ccc(N)cc1)C(=O)C1=Cc2ccc(-c3ccc(N4CCOCC4)nc3)cc2N=C(N)C1 [Compound 55],,,33.5,685
CCCN(OCc1ccc(N)cc1)C(=O)C1=Cc2ccc(-c3cncc(CO)c3)nc2N=C(N)C1 [Compound 62],≤ 10,100 to 1000,,
CCCN(OCc1ccc(N)cc1)C(=O)C1=Cc2ccc(C(=O)N3CC(Oc4ccccc4)C3)cc2N=C(N)C1 [Compound 94],≤ 10,100 to 1000,,
CCCN(OCc1ccc(N)cc1)C(=O)C1=Cc2ccc(C(=O)N3CC4(COC4)C3)cc2N=C(N)C1 [Compound 95],≤ 10,> 1000,,
CCCN(OCc1ccc(N)cc1)C(=O)C1=Cc2ccc(-c3cncc(N)c3)cc2N=C(N)C1 [Compound 52],,,8.61,355
NC1=Nc2cc(-c3cncc(CO)c3)ccc2C=C(C(=O)N(CC2CC2)OCc2ccc(N)cc2)C1 [Compound 45],,,7.33,1160

Compound,"EC50 [1, 3] [nM]",EC50 ([2]; class symbols) [nM],EC50 ([1]; serial 3-fold dilutions) [nM],EC50 [2] [nM]
CCCN(OCc1ccc(N)cc1)C(=O)C1=Cc2ccc(C(=O)Nc3cncc(OC)c3)cc2N=C(N)C1 [Compound 85],≤ 10,> 1000,,
CCCN(OCc1ccc(N)cc1)C(=O)C1=Cc2ccc(C(=O)N3CCN(C)CC3)cc2N=C(N)C1 [Compound 93],≤ 10,> 1000,,
CCCN(OCc1ccc(N)cc1)C(=O)C1=Cc2ccc(C(=O)Nc3ccc4c(c3)CNC4)cc2N=C(N)C1 [Compound 90],≤ 10,> 1000,,
CCCN(OCc1ccc(N)cc1)C(=O)C1=Cc2ccc(-c3ccc(C#N)nc3)cc2N=C(N)C1 [Compound 51],,,17.3,428
CCCN(OCc1ccc(N)cc1)C(=O)C1=Cc2ccc(-c3ccc4c(c3)C(=O)OC4)cc2N=C(N)C1 [Compound 43],,,8.04,180
CCCN(OCc1ccc(N)cc1)C(=O)C1=Cc2ccc(-c3cncc(C#N)c3)cc2N=C(N)C1 [Compound 50],,,7.7,274
CCCN(OCc1ccc(N)cc1)C(=O)C1=Cc2ccc(-c3cccc(S(=O)(=O)N4CC(O)C4)c3)cc2N=C(N)C1 [Compound 41],≤ 10,,15.3,2240
CCCN(OCc1ccc(N)cc1)C(=O)C1=Cc2ccc(C(=O)NC3CCOCC3)cc2N=C(N)C1 [Compound 84],≤ 10,> 1000,,
NC1=Nc2cc(-c3cncc(CO)c3)ccc2C=C(C(=O)N(CCC(F)(F)F)OCc2ccc(N)cc2)C1 [Compound 58],≤ 10,100 to 1000,,
CCCN(OCc1ccc(N)cc1)C(=O)C1=Cc2ccc(C(=O)N3CCC(O)C3)cc2N=C(N)C1 (stereo not drawn) [Compound 46],10 to 50,> 1000,,
CCCN(OCc1ccc(N)cc1)C(=O)C1=Cc2ccc(C(=O)Nc3cccnc3)cc2N=C(N)C1 [Compound 40],,,9.08,11700
CCCN(OCc1ccc(N)cc1)C(=O)C1=Cc2ccc(C(=O)N[C@H]3C[C@@H]3c3ccccc3)cc2N=C(N)C1 [Compound 78],≤ 10,100 to 1000,,
CCCN(OCc1ccc(N)cc1)C(=O)C1=Cc2ccc(-c3cncc(S(=O)(=O)N4CC[C@H](O)C4)c3)cc2N=C(N)C1 [Compound 72],≤ 10,100 to 1000,,
CCCN(OCc1ccc(N)cc1)C(=O)C1=Cc2ccc(-c3cncc(Cl)c3)cc2N=C(N)C1 [Compound 49],,,26.1,245
CCCN(OCc1ccc(N)cc1)C(=O)C1=Cc2ccc(-c3cncc(C(F)(F)F)c3)cc2N=C(N)C1 [Compound 53],10 to 50,100 to 1000,,
